One experiment deals with ATF4. The experiment in a line: ATF4 induction by immunofluorescence in HCT-116 cells transfected with tGFP or FAM210B-GFP. Set-up: compound mediated ATF4 induction versus FAM210B expression: dose or concentration left out as unconfirmed.
Conditions: not given
The format is cell-based, human. From the text:
FIG. 17 is a set of fluorescence micrographs of HCT-116 cells transfected with a vector expressing tGFP (left) or FAM210B-GFP (right).
FIG. 18 is a graph of ATF4 expression versus GFP expression for HCT-116 cells transfected with a vector expressing tGFP or FAM210B-GFP.
HCT-116 cells were transfected with a vector expressing tGFP or FAM210B-GFP. […] Following 4 hrs of drug treatment the cells were fixed, permeabilized, and ATF4 levels determined by immunofluorescence (IF), and FAM210B levels were determined by detection of GFP. Cells were binned based on median ATF4 protein expression and ranked relative to level of FAM210B-tGFP.
With arsenite [reference compound], the “effect of FAM210B expression on induction of ATF4 by the agent” value is listed as “no effect”.

Still in this experiment, the particulars now being: HCT-116 transfected with tGFP or FAM210B-GFP; 4 hrs; immunofluorescence.
In the case of `Cc1nn(-c2nc(C3=CCC(C(F)(F)F)CC3)c(SC(C)C)s2)c(C(=O)O)c1-c1cccc(F)c1` (stereo not shown) [Compound B5, 4-(3-fluorophenyl)-1-(5-(isopropylthio)-4-(4-(trifluoromethyl)cyclohex-1-en-1-yl)thiazol-2-yl)-3-methyl-1H-pyrazole-5-carboxylic acid], the “compound mediated ATF4 induction versus FAM210B expression” value is recorded as “induction of ATF4 is inhibited by FAM210B expression in HCT-116 cells”.

The same experiment, now with this note: alternate pathways of ATF4 induction.
For the compound tunicamycin [reference compound], the “effect of FAM210B expression on induction of ATF4 by the agent” value is “no effect”.

The experiment is the same for the next values; noted with them: follow-up studies.
With `Cc1nn(-c2nc(C3=CCC(C(F)(F)F)CC3)c(SC(C)C)s2)c(C(=O)O)c1-c1cccc(F)c1` (stereo not shown) [Compound B5, 4-(3-fluorophenyl)-1-(5-(isopropylthio)-4-(4-(trifluoromethyl)cyclohex-1-en-1-yl)thiazol-2-yl)-3-methyl-1H-pyrazole-5-carboxylic acid], the “effect of PERK inhibitors on compound mediated induction of ATF4” value is recorded as “no effect”.

For another experiment, the system named is BJAB (malignant human B-cell-line). Briefly: BJAB cell proliferation. The format is cell-based. As to conditions: BJAB (malignant human B-cell-line) cell proliferation, EC50; read-out: BJAB. The text has this: In certain embodiments, the therapeutic compound is one of the compounds of the compound table below. […] In certain embodiments, the therapeutic compound is a compound having an activity as “A,” “B” or “C” in the table below. In certain embodiments, the therapeutic compound is a compound having an activity as “A” or “B” in the table below. In certain embodiments, the therapeutic compound is a compound having an activity as “A” in the table below.
In certain embodiments, the therapeutic compound is one of the compounds of the compound table below, optionally provided as a pharmaceutically-acceptable salt or N-oxide, and/or a solvate or hydrate. […] In certain embodiments, the therapeutic compound is a compound having an activity as “A,” “B” or “C” in the table below. In certain embodiments, the therapeutic compound is a compound having an activity as “A” or “B” in the table below. In certain embodiments, the therapeutic compound is a compound having an activity as “A” in the table below.
As for `Cc1nn(-c2nc(C3=CCC(C(F)(F)F)CC3)c(SC(C)C)s2)c(C(=O)O)c1-c1cccc(F)c1` (stereo not shown) [Compound B5, 4-(3-fluorophenyl)-1-(5-(isopropylthio)-4-(4-(trifluoromethyl)cyclohex-1-en-1-yl)thiazol-2-yl)-3-methyl-1H-pyrazole-5-carboxylic acid], the EC50 is below 1 µM.
In the case of `Cc1cc(C(=O)O)n(-c2nc(-c3ccc(Cl)cc3OC3COC3)c(SC(C)C)s2)n1` [Compound B1, 1-(4-(4-chloro-2-(oxetan-3-yloxy)phenyl)-5-(isopropylthio)thiazol-2-yl)-3-methyl-1H-pyrazole-5-carboxylic acid], the EC50 is above 40 µM.
The same measure, in the same setting: with `Cc1nn(-c2nnc(-c3ccc(C(F)(F)F)cc3)s2)c(C(=O)O)c1-c1cccc(F)c1` [Compound B30, 4-(3-fluorophenyl)-3-methyl-1-(5-(4-(trifluoromethyl)phenyl)-1,3,4-thiadiazol-2-yl)-1H-pyrazole-5-carboxylic acid] the figure was above 20 µM; with `CC(C)=Cc1sc(-n2nc(C)c(-c3cccc(F)c3)c2C(=O)O)nc1-c1ccc(C(F)(F)F)cc1` [Compound B36, 4-(3-fluorophenyl)-3-methyl-1-(5-(2-methylprop-1-en-1-yl)-4-(4-(trifluoromethyl)phenyl)thiazol-2-yl)-1H-pyrazole-5-carboxylic acid], below 1 µM; with `COc1ccc(-c2nc(-n3nc(C)c(-c4cccc(F)c4)c3C(=O)O)sc2-c2ccc(OC)cc2)cc1` [Compound B44, 1-(4,5-bis(4-methoxyphenyl)thiazol-2-yl)-4-(3-fluorophenyl)-3-methyl-1H-pyrazole-5-carboxylic acid], 10 to 25 µM.
For the compound `Cc1nn(-c2nc(N3CCOCC3)c(SC(C)C)s2)c(C(=O)O)c1-c1cccc(F)c1` [Compound B14, 4-(3-fluorophenyl)-1-(5-(isopropylthio)-4-morpholinothiazol-2-yl)-3-methyl-1H-pyrazole-5-carboxylic acid], the EC50 is above 40 µM.
As for `Cc1nn(-c2nc(-c3ccc(Cl)c(Cl)c3)n(CC(C)C)n2)c(C(=O)O)c1-c1cccc(F)c1` [Compound B16, 1-(5-(3,4-dichlorophenyl)-1-isobutyl-1H-1,2,4-triazol-3-yl)-4-(3-fluorophenyl)-3-methyl-1H-pyrazole-5-carboxylic acid], the EC50 was above 20 µM.
As for `COCc1sc(-n2nc(C)c(-c3cccc(F)c3)c2C(=O)O)nc1-c1ccc(C(F)(F)F)cc1` [Compound B57, 4-(3-fluorophenyl)-1-(5-(methoxymethyl)-4-(4-(trifluoromethyl)phenyl)thiazol-2-yl)-3-methyl-1H-pyrazole-5-carboxylic acid], the EC50 lay within 5 to 10 µM.
For `COCCNC(=O)CCc1sc(-n2nc(C)c(-c3cccc(F)c3)c2C(=O)O)nc1-c1ccc(C(F)(F)F)cc1` [Compound B53, 4-(3-fluorophenyl)-1-(5-(3-((2-methoxyethyl)amino)-3-oxopropyl)-4-(4-(trifluoromethyl)phenyl)thiazol-2-yl)-3-methyl-1H-pyrazole-5-carboxylic acid], the EC50 is above 20 µM.
The same measure, in the same setting: under `COCCOc1ccc(-c2sc(-n3nc(C)c(-c4cccc(F)c4)c3C(=O)O)nc2-c2ccc(C(F)(F)F)cc2)cc1` [Compound B65, 4-(3-fluorophenyl)-1-(5-(4-(2-methoxyethoxy)phenyl)-4-(4-(trifluoromethyl)phenyl)thiazol-2-yl)-3-methyl-1H-pyrazole-5-carboxylic acid] stands 1 to 5 µM; under `Cc1nn(-c2nc(N3CCC(F)(F)CC3)c(SC(C)C)s2)c(C(=O)O)c1-c1cccc(F)c1` [Compound B18, 1-(4-(4,4-difluoropiperidin-1-yl)-5-(isopropylthio)thiazol-2-yl)-4-(3-fluorophenyl)-3-methyl-1H-pyrazole-5-carboxylic acid], 1 to 5 µM.
For `Cc1nn(-c2nc(N3CCN(CC(F)(F)F)CC3)c(SC(C)C)s2)c(C(=O)O)c1-c1cccc(F)c1` [Compound B23, 4-(3-fluorophenyl)-1-(5-(isopropylthio)-4-(4-(2,2,2-trifluoroethyl)piperazin-1-yl)thiazol-2-yl)-3-methyl-1H-pyrazole-5-carboxylic acid], the EC50 was 5 to 10 µM.
On the same count and under the same terms, with `Cc1nn(-c2nc(N3CCC4(CC3)CC4)c(SC(C)C)s2)c(C(=O)O)c1-c1cccc(F)c1` [Compound B41, 4-(3-fluorophenyl)-1-(5-(isopropylthio)-4-(6-azaspiro[2.5]octan-6-yl)thiazol-2-yl)-3-methyl-1H-pyrazole-5-carboxylic acid] the figure was 1 to 5 µM; with `Cc1nn(-c2nc(-c3cccc(F)c3)c(-c3ccc(C(F)(F)F)cc3)s2)c(C(=O)O)c1-c1cccc(F)c1` [Compound B62, 4-(3-fluorophenyl)-1-(4-(3-fluorophenyl)-5-(4-(trifluoromethyl)phenyl)thiazol-2-yl)-3-methyl-1H-pyrazole-5-carboxylic acid], 5 to 10 µM.
Still for that read-out and setting: under `COC(C)c1sc(-n2nc(C)c(-c3cccc(F)c3)c2C(=O)O)nc1-c1ccc(C(F)(F)F)cc1` (stereo not shown) [Compound B66, 4-(3-fluorophenyl)-1-(5-(1-methoxyethyl)-4-(4-(trifluoromethyl)phenyl)thiazol-2-yl)-3-methyl-1H-pyrazole-5-carboxylic acid] stands 5 to 10 µM.
Still for that read-out and setting: with `Cc1nn(-c2nc(C3=CCC4(CC3)OCCO4)c(SC(C)C)s2)c(C(=O)O)c1-c1cccc(F)c1` [Compound B7, 4-(3-fluorophenyl)-1-(5-(isopropylthio)-4-(1,4-dioxaspiro[4.5]dec-7-en-8-yl)thiazol-2-yl)-3-methyl-1H-pyrazole-5-carboxylic acid] the figure was 25 to 50 µM.

Still in this experiment, the particulars now being: BJAB cell proliferation; read-out: EC50.
`Cc1nn(-c2nc(-c3ccc(Cl)c(Cl)c3)c(SC(C)C)s2)c(CO)c1-c1ccccc1` [Compound A88, (1-(4-(3,4-dichlorophenyl)-5-(isopropylthio)thiazol-2-yl)-3-methyl-4-phenyl-1H-pyrazol-5-yl)MeOH]: the EC50 is above 25 µM.

Staying with this experiment, now noted: Homo sapiens; BJAB cell proliferation; read-out: EC50.
Consider `COc1cc(Cl)cc(-c2c(C)nn(-c3nc(-c4ccc(C(F)(F)F)cc4)c(SC(C)C)s3)c2C(=O)O)c1` [Compound A222, 4-(3-chloro-5-methoxyphenyl)-1-(5-(isopropylthio)-4-(4-(trifluoromethyl)phenyl)thiazol-2-yl)-3-methyl-1H-pyrazole-5-carboxylic acid], for which the EC50 is below 1 µM.

The record behind these values is patent US20210278408A1, “METHODS OF TREATMENT OF CANCER WITH SUBSTITUTED PYRROLE AND PYRAZOLE COMPOUNDS AND DIAGNOSIS OF CANCERS SUSCEPTIBLE TO TREATMENT WITH SUBSTITUTED PYRROLE AND PYRAZOLE COMPOUNDS” (Bantam Pharmaceutical, LLC, priority 2018, published 2021).
